Entries after “also recorded” stand apart in the source; their conditions may differ.
How the values were obtained:
spontaneous motility = assay: Spontaneous motility in rats; type: in vivo, rat; conditions: for Effect on spontaneous motility: 5 mg/kg i.p.; for Effect on motility at higher doses: 10 and 15 mg/kg
[1] = tested on: catalepsy induced by haloperidol; assay: Haloperidol-induced catalepsy, vertical grid test; type: in vivo, rat; conditions: rats; for Effect on catalepsy induced by haloperidol: 5 mg/kg i.p. given 90 min after haloperidol 0.2 mg/kg s.c., 90 min testing period; for Duration of anticataleptic effect: 5 mg/kg i.p., haloperidol 0.2 mg/kg s.c., time after drug administration
Description: Male Sprague Dawley rats (200–300 g, Charles River, Calco, Italy) were housed in groups of 4–6 in standard polycarbonate cages with sawdust bedding and maintained on a 12 h light/dark cycle (lights on at 8:00 am). Food and water were freely available. All experiments were conducted in accordance with the guidelines for animal experimentation of the EU directives (2010/63/EU; L.276; 22 September 2010) and approved by the Committee on Animal Experimentation (CESA; protocol code 29456, 21 March 2012) of the University of Cagliari. Experiments were designed to minimize animal discomfort and to reduce the number of animals used.
Catalepsy was estimated using the vertical grid test. The test was carried out by placing a rat with the four paws on a wire grid (43–25 cm) at an angle of about 70° in respect to the bench surface. Catalepsy was determined by measuring the time in which the rat maintained a given position. The test was terminated when the rat moved one paw or when 90 s had elapsed from the placement of the rat on the grid. Catalepsy assessments were repeated every 10–15 min intervals. […] A2AAR antagonists were injected 90 min after haloperidol administration to evaluate their effects on deeply cataleptic rats. […]
For catalepsy evaluation, the mean and S.E.M. of the seconds of immobility during each test section were calculated. Significant differences between groups were evaluated by one-way analysis of variance (ANOVA) followed by a Newman–Keuls post hoc test.
After 40 min of haloperidol administration (0.2 mg/kg s.c.), a significant catalepsy was induced in rats, which reached its maximum at 60–70 min [18, 24]. Therefore, the administration of the A2AAR antagonists was made 90 min after haloperidol to evaluate their effects on deeply cataleptic rats.

human A2AAR = biological target: T1, human A2AAR (Homo sapiens, UniProt P29274); assay: GloSensor cAMP assay in CHO cells expressing human A2AAR; type: cell-based; conditions: for cAMP production when tested alone (agonist behavior): A2AAR transfected CHO cells, compound alone, in comparison with NECA; for IC50: CHO cells expressing hA2AARs, GloSensor cAMP assay, mean ± standard error, read-out: IC50, inhibition of NECA-induced cAMP production
T1 construct: expressed in transfected cells; host or cells: CHO cells, crude membrane fractions
Description: The performed GloSensorÏ cAMP assay is a non-radioactive method that offers a simple and powerful approach to monitor G-protein coupled receptor (GPCR) activity through change in the intracellular cAMP concentration.
Cell culture: CHO cells stably expressing human A2AAR were grown adherently and maintained in Dulbecco’s modified Eagle’s medium with nutrient mixture F12 (DMEM/F12 with phenol red), supplemented with 10% fetal bovine serum (FBS), 100 U mL^−1 penicillin, 100 µg mL^−1 streptomycin, 2.5 µg mL^−1 amphotericin, 1 mM sodium pyruvate and 0.1 mg mL^−1 geneticin (G418), at 37 °C and aerated with 5% CO2:95% […]. Cells were grown to approximately 70–80% confluence, and transient transfection with a plasmid encoding the biosensor was performed.
GloSensorÏ cAMP assay: Cells were harvested in CO2-independent medium and were counted in a Neubauer chamber. The desired number of cells was incubated in equilibration medium containing a 3% v/v GloSensor^TM cAMP reagent stock solution, 10% FBS, and 87% CO2 independent medium. After 2 h of incubation, the cells were dispensed in the wells of a 384-well plate and, when a steady-state basal signal was obtained, the NECA referent agonist or the understudy compounds, at different concentrations, were added. […] The antagonist profile was evaluated by assessing their ability to counteract an agonist-induced increase in cAMP accumulation. The cells were incubated in the reaction medium (10 min at room temperature) with different understudy molecule concentrations and then treated with NECA. After 10 min, various luminescence reads were performed at different incubation times.
Statistical analysis: Responses were expressed as a percentage of the maximal relative luminescence units (RLU). Concentration–response curves were fitted by a nonlinear regression with the Prism 4.0 program (GraphPAD Software, San Diego, CA, USA). To quantify the NECA agonist potency, the EC50 value was calculated. The EC50 value is the concentration of agonists required to produce 50% of the maximum effect. To evaluate the antagonist profile, the IC50 values were determined. The IC50 value is the concentration of antagonists that produces a 50% inhibition of the agonist effect. Each concentration was tested three times in triplicate, and the values are given as the mean ± standard error.

6-OHDA-lesioned rats = assay: Potentiation of L-dopa-induced contralateral rotations in unilaterally 6-OHDA-lesioned rats; type: in vivo, rat; conditions: 5 mg/kg i.p. with L-dopa 3 mg/kg i.p., turns in 2 h, versus L-dopa alone
Description: Rats (275–300 g) were anesthetized and placed on a David Kopf stereotaxic apparatus (Tujunga, CA, USA) and infused, using a stainless steel cannula, into the left medial forebrain bundle [coordinates A = −2.2, L = +1.5 from bregma, V = −7.9 from the dura, according to the atlas of Pellegrino et al. (1979) [34]] with 6-OHDA (8 μg/4 μL of saline containing 0.05% ascorbic acid). Rats were pretreated with desipramine (10 mg/kg i.p.) to prevent damage to noradrenergic neurons.
Rotational behavior was assessed in hemispherical bowls (50 cm diameter), with sawdust on the floor, in which each rat was connected to an automated rotameter system (Panlab s.l., Barcelona, Spain) capable of detecting the number of full (360°) rotations in both directions (ipsilateral and contralateral to the lesioned hemisphere). Rats were placed in the bowls 30 min before drug administration to acclimatize and extinguish any spontaneous rotational behavior, and both contralateral and homolateral rotations were measured in 10 min blocks for 120 min after drug injection. The total number of contralateral and homolateral rotations (mean ± SEM) in a 2 h testing period were calculated.
Potentiation of L-dopa-induced rotational behavior: two weeks after the unilateral 6-OHDA lesion, rats were screened based on their contralateral rotations in response to L-dopa (50 mg/kg i.p.) + benserazide (30 mg/ kg i.p.). Rats not showing at least 300 contralateral rotations during the 2 h testing period were eliminated from the study. Three days later, rats were administered with a subthreshold dose of L-dopa (3 mg/kg i.p.) + benserazide (6 mg/kg i.p.) in combination with the vehicle or with a dose of 5 mg/kg i.p of 1, 4, or 5. Compounds were administered simultaneously with L-dopa. Benserazide was always injected 30 min before L-dopa.
In the rotational behavior experiments, the mean and S.E.M. of the total number of contralateral rotations were calculated. Significant differences between groups were evaluated by one-way ANOVA followed by a Newman–Keuls post hoc test.

T1 sequence (P29274 whole entry): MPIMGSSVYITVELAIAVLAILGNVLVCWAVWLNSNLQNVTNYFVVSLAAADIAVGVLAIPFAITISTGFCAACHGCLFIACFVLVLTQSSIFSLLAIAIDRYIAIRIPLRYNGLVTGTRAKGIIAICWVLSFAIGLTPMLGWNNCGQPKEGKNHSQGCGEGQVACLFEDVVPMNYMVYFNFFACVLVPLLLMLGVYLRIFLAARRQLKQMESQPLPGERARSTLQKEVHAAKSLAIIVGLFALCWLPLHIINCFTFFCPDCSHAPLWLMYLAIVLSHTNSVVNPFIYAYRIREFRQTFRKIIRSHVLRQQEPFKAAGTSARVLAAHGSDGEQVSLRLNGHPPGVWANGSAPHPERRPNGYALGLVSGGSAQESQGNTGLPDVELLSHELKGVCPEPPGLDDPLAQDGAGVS

| Structure (SMILES) | Effect on spontaneous motility (spontaneous motility) | Effect on motility at higher doses (spontaneous motility) | Efficacy on catalepsy, preliminary studies ([1]; 5 mg/kg) | Effect on catalepsy induced by haloperidol [1] | Duration of anticataleptic effect [1] | Efficacy on catalepsy, preliminary studies ([1]; 1 and 3 mg/kg) | cAMP production when tested alone (agonist behavior) (human A2AAR) | IC50 (human A2AAR) | Number of contralateral rotations induced by subthreshold L-dopa (6-OHDA-lesioned rats) |
| --- | --- | --- | --- | --- | --- | --- | --- | --- | --- |
| CCn1c(Br)nc2c(N)nc(OCCc3ccccc3)nc21 [Compound 1, 8-bromo-9-ethyl-2-phenetoxyadenine] | did not modify spontaneous motility | caused hypermotility | fully effective | significantly antagonized catalepsy | 10 to 90 min | low efficacy on catalepsy | not able to stimulate cAMP production; also recorded: no increase in cAMP production was detected | 108 ± 23 nM | did not increase |
| CCOc1nc2c(N)nc(OCCc3ccccc3)nc2n1CC [Compound 4, 8-ethoxy-9-ethyl-2-phenethoxyadenine] | did not modify spontaneous motility | caused hypermotility | fully effective | significantly antagonized catalepsy; also recorded: longer duration and a strong intensity | 10 to 90 min | low efficacy on catalepsy | not able to stimulate cAMP production; also recorded: no increase in cAMP production was detected | 278 ± 49 nM | significantly increased |
| CCn1c(I)nc2c(N)nc(OCCc3ccccc3)nc21 [Compound 5, 9-ethyl-8-iodo-2-phenethoxy-9H-purin-6-amine] | did not modify spontaneous motility | caused hypermotility | fully effective | significantly antagonized catalepsy | ≤ 60 min | low efficacy on catalepsy | not able to stimulate cAMP production; also recorded: no increase in cAMP production was detected | 114 ± 25 nM | significantly increased |
